In test [1] the test system is pentylenetetrazol-induced tonic convulsions in mice. The experiment in a line: Pentazol tonic convulsions in mice, i.p. (Procedure 401). In kind it is in vivo. The settings on record: for ED50: Mus musculus, ip, i.p. 30 min before 150 mg/kg pentylenetetrazol s.c., seizures inhibited in 50% of the animals, read-out: ED50, activity against pentazol induced convulsions, tonic. On the procedure:
III. Pentazol tonic conv. mice i.p. (Procedure 401)
Pentylenetetrazol induces clonic and tonic convulsions in mice at doses of 60-120 mg/kg s.c. The mechanism is unknown but seem to be due to some effects through the GABA receptor/benzodiazepine receptor/chloride ionophore complex. Antagonism of convulsions induced by maximal doses of pentylenetetrazol is considered predictive for drugs effective against petit mal epilepsia and anxiety.
150 mg/kg pentylenetetrazol (Pentazol, Sigma) dissolved in 0.9% NaCl is given by the subcutaneous route in volumes of 15 ml/kg to male or female NMRI mice weighing 20-25 g 30 min after an intraperitoneal injection of a test compound.
The ED50 value is calculated as the dose in μg/kg where seizures are inhibited in 50% of the animals using a computer program based on the method of Litchfield and Wilcoxon (1949).

The test system of test [2] is pentylenetetrazol-induced clonic convulsions in mice. The experiment in a line: Pentazol clonic convulsions in mice, i.p. (Procedure 400). In kind it is in vivo. Conditions: for ED50: Mus musculus, ip, i.p. 30 min before 150 mg/kg pentylenetetrazol s.c., seizures inhibited in 50% of the animals, read-out: ED50, activity against pentazol induced convulsions, clonic. On the procedure: II. Pentazol clonic conv. mice (i.p.) (Procedure 400)
Pentylenetetrazol induces clonic and tonic convulsions in mice at doses of 60-120 mg/kg s.c. The mechanism is unknown but seems to be due to some effects through the GABA receptor/benzodiazepine receptor/chloride ionophore complex. Antagonism of convulsions induced by maximal doses of pentylenetetrazol is considered predictive for drugs effective against petit mal epilepsia and anxiety.
150 mg/kg pentylenetetrazol dissolved in 0.9% NaCl is given by the subcutaneous route in volumes of 15 ml/kg to male or female NMRI mice weighing 20-25 g 30 min after an intraperitoneal injection of a test compound.
The ED50 value is calculated as the dose in μg/kg at which seizures are inhibited in 50% of the animals using a computer program based on the method of Litchfield and Wilcoxon (1949).

In another test the test system is benzodiazepine receptors. The experiment in a line: In vivo inhibition of 3H-flunitrazepam binding to mouse forebrain membranes (Procedure 130). The settings on record: for ED50 binding in vivo: i.p. 15 min before 3H-FNM i.v., dose which inhibits 50% of specific 3H-FNM binding, mouse forebrain. Also noted: species or system mice. On the procedure: I. In vivo inhibition of ^3 H-flunitrazepam binding to mouse forebrain membranes by test substances administered intraperitoneally. (Procedure 130)
Twenty minutes after a dose of ^3 H-flunitrazepam (^3 H-FNM) (200 μCi/kg, i.v.) the amount of specific ^3 H-FNM binding to brain benzodiazepine receptors has reached its maximal value.
Suspensions of test substances (2 mg/ml) are prepared in 5% Duphasol-X* by sonification for 10 min using a Branson B15 microtip ultrasonifier (setting 7). Groups of three mice (female, NMR, 18-22 gram) are injected with the test substance at 100 mg/kg intraperitoneally. Fifteen minutes after test substance administration the mice are challenged with 4 μCi intraveneously of ^3 H-FNM (70-90 Ci/mole) in 200 μl physiological saline. Twenty minutes after ^3 H-FNM administration mice are sacrificed by decapitation, the forebrains rapidly excised (within 30 sec) and homogenized in 12 ml of icecold 25 mM KH2 PO4, pH 7.1, using an Ultra-Turrax homogenizer fitted with an N 10 shaft. Two aliquots of 1 ml are immediately filtered through Whatman GF/C glassfibre filters and washed with 2×5 ml of the above mentioned buffer. The amounts of radioactivity on the filters are determined by conventional scintillation counting. One group of untreated mice serves as controls. One to three mice are injected with 25 mg/kg clonazepam i.p. 30 minutes before ^3 H-FNM to determine the amount of non-specific ^3 H-FNM binding, which should be between 8-15% of total binding.
*(™Duphar; castor-oil-ethylene oxide derivative for emulsifying and solubilizing oil and other water-insoluble substances)
When doses of 100 mg/kg inhibit more than 50% of specific ^3 H-flunitrazepam binding; test substances are administered in doses, which are factors of 3.16 times lower than 100 mg/kg.
The ED50 for a test substance is defined as that dose which inhibits 50% of specific ^3 H-FNM binding. Specific binding is the amount of binding in controls minus the amount binding in clonazepam-treated mice.
The ED50 value is determined from dose response curves. If only one dose of test substance is administered the ED50 value is calculated as follows, provided that the inhibition of specific binding is within the range of 25-75%: [formula] where Co is specific binding in controls and Cx is specific binding in mice treated with test substance.

[3] abbreviates: compared to analogue (D), Roche EP 150,040 ex. 44.

A word on the ED50: it is the dose at which the effect has come halfway, by size or by number of responders.

For `CN1Cc2c(-c3noc(C4CC4)n3)ncn2-c2ccccc2C1=O` [A, 3-(5-cyclopropyl-1,2,4-oxadiazol-3-yl)-5,6-dihydro-5-methyl-6-oxo-4H-imidazo[1,5-a][1,4]benzodiazepine], the results for the ED50 in test [1] and in test [2] were 0.03 mg/kg and 0.07 mg/kg, respectively. In addition, the entries for the “times as active in protecting against pentetrazol induced tonic convulsions” value in test [1] (setting [3]) and in test [1] (compared to compound E) were 10 times and 33 times, respectively. Further, the “times as active in protecting against pentetrazol induced clonic convulsions” value in test [2] (setting [3]) is “approximately 40 times”; in test [2] (compared to compound E), 185 times. The “times as active in binding affinity for the benzodiazepine receptor” value in the test on benzodiazepine receptors (setting [3]) is on record as “more than 4 times”. For the same compound, the “times more as active in binding affinity for the benzodiazepine receptor” value with benzodiazepine receptors (compared to compound E) amounted to 12 times. Moreover, the “ED50 binding in vivo” value with benzodiazepine receptors was determined as 80 µg/kg.

In the case of `CCc1nc(-c2ncn3c2CN(C)C(=O)c2ccccc2-3)no1` [B], the ED50 is 1.3 mg/kg in test [1] and 27 mg/kg in test [2]. The “ED50 binding in vivo” value with benzodiazepine receptors is 1,800 μg/kg.

Take `CC(C)c1noc(-c2ncn3c2CN(C)C(=O)c2ccccc2-3)n1` [C]: the ED50 was 1.7 mg/kg in test [1] and 3 mg/kg in test [2]. Further, the “ED50 binding in vivo” value in the test with benzodiazepine receptors was 600 µg/kg.

`CN1Cc2c(-c3nc(C4CC4)no3)ncn2-c2ccccc2C1=O` [D]: the ED50 in test [1] was 0.3 mg/kg; in test [2] it was 2.7 mg/kg. The “ED50 binding in vivo” value in the test with benzodiazepine receptors was 340 µg/kg.

For `O=C1c2c(Cl)cccc2-n2cnc(-c3noc(C4CC4)n3)c2C2CCCN12` (stereo not drawn) [E], the ED50 in test [1] amounted to 1 mg/kg; in test [2], 13 mg/kg. For the same compound, the “ED50 binding in vivo” value in the test on benzodiazepine receptors came out at 960 µg/kg.

(Values after patent US4622321A, “Oxadiazolylimidazobenzodiazepine, compositions, and method” (AS Ferrosan, priority 1985, dated 1986).)
